Calls of active or inactive are those of the source. No cut-off for these calls is given here.
What was measured:
[1] = AUC in Balb/c mouse xenografted with human MV4-11 cells at 30 mg/kg, po administered once daily via gavage; assay type: ADME, organism-based; conditions: in vivo
[2] = AUC(0 to t) in male Sprague-Dawley rat at 40 mg/kg, po administered once daily via gavage for 28 days; assay type: ADME, organism-based; conditions: in vivo, 672 h, time 28 day
[3] = target: Mitogen-activated protein kinase 10 (Homo sapiens) (UniProt P53779); assay: Inhibition of JNK3 (unknown origin) at 5 uM by DiscoverX KinomeScan ScanMAX analysis
[4] = Half life in male Sprague-Dawley rat at 20 mg/kg, po administered via gavage and measured on day 1; assay type: ADME, organism-based; conditions: in vivo
[5] = Volume of distribution at steady state in Sprague-Dawley rat at 1 mg/kg, iv measured for 24 hrs by LC-MS/MS analysis; assay type: ADME, organism-based; conditions: in vivo, read-out: Vdss
[6] = Half life in female Sprague-Dawley rat at 15 mg/kg, po administered via gavage and measured on day 1; assay type: ADME, organism-based; conditions: in vivo, time 1 day
[7] = Toxicity against male Sprague-Dawley rat assessed as effect on AST level in blood at 10 to 40 mg/kg, po administered once daily via gavage for 28 days and measured on day 29; assay type: organism-based; conditions: in vivo, 696 h, dose 10-40 mg/kg, time 29 day
[8] = Cmax in male Sprague-Dawley rat at 10 mg/kg, po administered via gavage and measured on day 1; assay type: ADME, organism-based; conditions: in vivo, time 1 day
OCI-AML-3 = assay: Antiproliferative activity against human OCI-AML-3 cells assessed as reduction in cell viability incubated for 7 days by CellTiter-Glo reagent based luminescence analysis; assay type: functional; conditions: OCI-AML-3, 168 h
[9] = Toxicity against male Sprague-Dawley rat assessed as increase in neutrophils content at 10 to 40 mg/kg, po administered once daily via gavage for 28 days and measured on day 29; assay type: organism-based; conditions: in vivo, 696 h, dose 10-40 mg/kg, time 29 day
[10] = target: CDK3/Cyclin E (Homo sapiens) (UniProt P24864+Q00526); assay: Inhibition of human recombinant N-terminal GST-tagged CDK3/N-terminal 6X His-tagged Cyclin E1 expressed in HEP Sf9 cells using ATP as substrate at 2 uM measured after 60 mins by ADP-Glo reagent based luminescence analysis
[11] = Toxicity against female Sprague-Dawley rat assessed as effect on glucose level in blood at 7.5 to 30 mg/kg, po administered once daily via gavage for 28 days and measured on day 29; assay type: organism-based; conditions: in vivo, 696 h, dose 7.5-30 mg/kg, time 29 day
[12] = target: CDK12/Cyclin K (Homo sapiens) (UniProt O75909+Q9NYV4); assay: Irreversible covalent binding affinity to CDK12/CyclinK (unknown origin) at Cys1039 residue assessed as 1:1 complex formation at 5 uM measured after 3 hrs by peptide mapping based mass spectrometric analysis; assay type: protein-complex assay
[13] = Cmax in male Sprague-Dawley rat at 40 mg/kg, po administered via gavage and measured on day 1; assay type: ADME, organism-based; conditions: in vivo, time 1 day
[14] = Toxicity against female Sprague-Dawley rat assessed as effect on monocytes level at 7.5 to 30 mg/kg, po administered once daily via gavage for 28 days and measured on day 29; assay type: organism-based; conditions: in vivo, 696 h, dose 7.5-30 mg/kg, time 29 day
[15] = Half-life in Balb/c mouse xenografted with human MV4-11 cells at 15 mg/kg, po administered once daily via gavage; assay type: ADME, organism-based; conditions: in vivo
[16] = Toxicity against female Sprague-Dawley rat assessed as effect on creatinine level in blood at 7.5 to 30 mg/kg, po administered once daily via gavage for 28 days and measured on day 29; assay type: organism-based; conditions: in vivo, 696 h, dose 7.5-30 mg/kg, time 29 day
[17] = AUC(0 to t) in female Sprague-Dawley rat at 15 mg/kg, po administered via gavage and measured on day 1; assay type: ADME, organism-based; conditions: in vivo, 24 h, time 1 day
[18] = GSH reactivity assessed as half life to adduct formation at 10 uM by LC-MS/MS analysis; assay type: physicochemical
[19] = Toxicity against female Sprague-Dawley rat assessed as decrease in lymphocytes content at 7.5 to 30 mg/kg, po administered once daily via gavage for 28 days and measured on day 29; assay type: organism-based; conditions: in vivo, 696 h, dose 7.5-30 mg/kg, time 29 day
[20] = Half life in Sprague-Dawley rat at 15 mg/kg, po measured for 24 hrs by LC-MS/MS analysis; assay type: ADME, organism-based; conditions: in vivo
[21] = AUC(0 to t) in female Sprague-Dawley rat at 30 mg/kg, po administered via gavage and measured on day 1; assay type: ADME, organism-based; conditions: in vivo, 24 h, time 1 day
[22] = Toxicity against male Sprague-Dawley rat assessed as effect on body weight at 10 to 20 mg/kg, po administered once daily via gavage for 28 days and measured twice a week; assay type: organism-based; conditions: in vivo, 672 h, dose 10-20 mg/kg, time 28 day
[23] = Cmax in male Sprague-Dawley rat at 20 mg/kg, po administered via gavage and measured on day 1; assay type: ADME, organism-based; conditions: in vivo, time 1 day
Cytochrome P450 1A2 = Cytochrome P450 1A2 (Homo sapiens, UniProt P05177); assay: Inhibition of CYP1A2 in human liver microsomes assessed as inhibition of phenacetin-O-deethylation incubated for 10 mins in presence of NADPH by LC-MS/MS analysis; assay type: ADME, Microsome
SUM149PT = assay: Antitumor activity against human SUM149PT cells xenografted in Balb/c mouse assessed as inhibition of tumor growth at 30 mg/kg, po administered once daily via gavage and measured on day 20; assay type: functional; conditions: 480 h, time 20 day, read-out: TGI
[24] = Cmax in Sprague-Dawley rat at 50 mg/kg, po measured for 24 hrs by LC-MS/MS analysis; assay type: ADME, organism-based; conditions: in vivo
[25] = target: Cyclin-dependent kinase 2/cyclin E1 (Homo sapiens) (UniProt P24864+P24941); assay: Inhibition of human recombinant N-terminal GST-tagged CDK2/N-terminal GST-tagged Cyclin E1 expressed in HEP Sf9 cells using ATP as substrate at 2 uM measured after 60 mins by ADP-Glo reagent based luminescence analysis
Cytochrome P450 2C19 = Cytochrome P450 2C19 (Homo sapiens, UniProt P33261); assay: Inhibition of CYP2C19 in human liver microsomes assessed as inhibition of S-mephenytoin-4-hydroxylation incubated for 10 mins in presence of NADPH by LC-MS/MS analysis; assay type: ADME, Microsome
[26] = Half life in Sprague-Dawley rat at 1 mg/kg, iv measured for 24 hrs by LC-MS/MS analysis; assay type: ADME, organism-based; conditions: in vivo
[27] = Half life in female Sprague-Dawley rat at 7.5 mg/kg, po administered via gavage and measured on day 1; assay type: ADME, organism-based; conditions: in vivo, time 1 day
SW1417 = assay: Antiproliferative activity against human SW1417 cells assessed as reduction in cell viability incubated for 7 days by CellTiter-Glo reagent based luminescence analysis; assay type: functional; conditions: SW1417, 168 h
[28] = target: Cyclin-dependent kinase 12/13 (Homo sapiens) (UniProt Q14004+Q9NYV4); assay: Inhibition of CDK12/13 in human SUM149PT cells assessed as reduction in BRCA1 gene expression at 500 nM incubated for 8 to 24 hrs by qPCR analysis; assay type: cell-based; conditions: time lower 8.0 hrs, time upper […]
[29] = target: Mitogen-activated protein kinase 8 (Homo sapiens) (UniProt P45983); assay: Inhibition of JNK1 (unknown origin) at 5 uM by DiscoverX KinomeScan ScanMAX analysis
[30] = Toxicity against male Sprague-Dawley rat assessed as effect on mean corpuscular hemoglobin at 10 to 40 mg/kg, po administered once daily via gavage for 28 days and measured on day 29; assay type: organism-based; conditions: in vivo, 696 h, dose 10-40 mg/kg, time 29 day

CDK12/Cyclin K (Homo sapiens), sequence (O75909 whole entry, looked up): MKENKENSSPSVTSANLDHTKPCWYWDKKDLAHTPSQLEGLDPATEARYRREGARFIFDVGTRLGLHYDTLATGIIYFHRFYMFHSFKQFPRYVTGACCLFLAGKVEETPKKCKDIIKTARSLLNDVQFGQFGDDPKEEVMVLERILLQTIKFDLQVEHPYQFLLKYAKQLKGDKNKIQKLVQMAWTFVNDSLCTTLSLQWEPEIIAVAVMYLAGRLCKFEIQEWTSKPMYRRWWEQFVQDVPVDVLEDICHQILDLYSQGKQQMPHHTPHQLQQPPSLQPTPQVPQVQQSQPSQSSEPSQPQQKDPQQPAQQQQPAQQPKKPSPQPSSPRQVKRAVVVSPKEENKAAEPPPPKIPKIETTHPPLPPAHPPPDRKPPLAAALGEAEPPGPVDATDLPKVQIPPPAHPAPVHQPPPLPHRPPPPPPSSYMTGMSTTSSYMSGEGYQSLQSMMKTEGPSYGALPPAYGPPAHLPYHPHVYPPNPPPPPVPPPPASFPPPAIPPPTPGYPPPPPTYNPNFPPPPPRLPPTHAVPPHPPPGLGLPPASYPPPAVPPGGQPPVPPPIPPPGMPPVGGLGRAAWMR
CDK12/Cyclin K (Homo sapiens), sequence (Q9NYV4 whole entry, looked up): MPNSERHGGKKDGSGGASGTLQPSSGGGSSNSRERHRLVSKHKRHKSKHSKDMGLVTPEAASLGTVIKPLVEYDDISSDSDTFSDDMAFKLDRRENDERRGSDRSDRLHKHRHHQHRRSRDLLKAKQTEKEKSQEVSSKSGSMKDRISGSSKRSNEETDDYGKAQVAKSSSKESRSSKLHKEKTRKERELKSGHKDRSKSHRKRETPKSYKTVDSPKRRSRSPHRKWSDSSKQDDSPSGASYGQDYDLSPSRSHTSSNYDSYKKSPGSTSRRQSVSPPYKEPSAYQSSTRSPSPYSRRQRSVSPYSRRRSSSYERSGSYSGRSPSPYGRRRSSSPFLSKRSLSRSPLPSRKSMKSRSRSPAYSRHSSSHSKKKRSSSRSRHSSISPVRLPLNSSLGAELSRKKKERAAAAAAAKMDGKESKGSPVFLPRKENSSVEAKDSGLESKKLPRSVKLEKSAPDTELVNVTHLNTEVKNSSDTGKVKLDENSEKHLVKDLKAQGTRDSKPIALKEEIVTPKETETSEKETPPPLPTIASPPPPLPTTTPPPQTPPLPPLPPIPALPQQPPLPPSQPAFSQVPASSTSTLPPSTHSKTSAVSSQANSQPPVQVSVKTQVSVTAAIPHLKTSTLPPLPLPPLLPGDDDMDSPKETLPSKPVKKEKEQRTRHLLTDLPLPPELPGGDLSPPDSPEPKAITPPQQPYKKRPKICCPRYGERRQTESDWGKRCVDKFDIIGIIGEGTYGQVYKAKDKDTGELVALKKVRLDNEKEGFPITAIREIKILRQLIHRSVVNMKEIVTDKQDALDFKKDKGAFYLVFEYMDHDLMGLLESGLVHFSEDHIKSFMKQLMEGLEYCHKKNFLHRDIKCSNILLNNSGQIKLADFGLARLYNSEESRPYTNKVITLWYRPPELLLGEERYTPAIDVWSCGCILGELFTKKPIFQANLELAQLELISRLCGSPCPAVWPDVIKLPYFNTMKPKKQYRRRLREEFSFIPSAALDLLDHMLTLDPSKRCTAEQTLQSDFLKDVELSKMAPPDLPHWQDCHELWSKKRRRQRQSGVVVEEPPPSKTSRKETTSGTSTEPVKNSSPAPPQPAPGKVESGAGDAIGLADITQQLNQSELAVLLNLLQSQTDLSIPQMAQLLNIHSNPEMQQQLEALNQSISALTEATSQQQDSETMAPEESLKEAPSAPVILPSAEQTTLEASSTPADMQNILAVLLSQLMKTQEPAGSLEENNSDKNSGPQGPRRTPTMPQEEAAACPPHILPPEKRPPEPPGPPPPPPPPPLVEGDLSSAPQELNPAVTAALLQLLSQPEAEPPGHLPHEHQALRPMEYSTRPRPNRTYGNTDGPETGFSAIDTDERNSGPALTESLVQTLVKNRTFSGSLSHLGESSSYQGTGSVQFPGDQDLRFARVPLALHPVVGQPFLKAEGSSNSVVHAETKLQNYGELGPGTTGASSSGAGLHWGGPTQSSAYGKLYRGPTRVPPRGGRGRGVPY
Cytochrome P450 1A2, sequence (P05177 whole entry): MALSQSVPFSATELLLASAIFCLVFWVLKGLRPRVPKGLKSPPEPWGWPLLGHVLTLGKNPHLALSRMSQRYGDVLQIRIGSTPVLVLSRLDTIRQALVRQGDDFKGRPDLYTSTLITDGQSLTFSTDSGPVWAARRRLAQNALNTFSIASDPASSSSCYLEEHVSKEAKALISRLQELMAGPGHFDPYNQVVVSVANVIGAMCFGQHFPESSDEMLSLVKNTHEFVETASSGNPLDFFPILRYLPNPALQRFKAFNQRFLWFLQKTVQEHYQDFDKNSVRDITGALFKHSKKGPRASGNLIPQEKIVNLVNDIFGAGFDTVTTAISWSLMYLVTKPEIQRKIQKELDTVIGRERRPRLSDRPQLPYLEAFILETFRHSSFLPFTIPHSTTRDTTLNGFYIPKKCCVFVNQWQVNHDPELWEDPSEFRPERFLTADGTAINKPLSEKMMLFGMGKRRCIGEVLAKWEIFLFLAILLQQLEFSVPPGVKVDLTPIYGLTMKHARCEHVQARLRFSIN
Mitogen-activated protein kinase 8 (Homo sapiens), sequence (P45983 whole entry): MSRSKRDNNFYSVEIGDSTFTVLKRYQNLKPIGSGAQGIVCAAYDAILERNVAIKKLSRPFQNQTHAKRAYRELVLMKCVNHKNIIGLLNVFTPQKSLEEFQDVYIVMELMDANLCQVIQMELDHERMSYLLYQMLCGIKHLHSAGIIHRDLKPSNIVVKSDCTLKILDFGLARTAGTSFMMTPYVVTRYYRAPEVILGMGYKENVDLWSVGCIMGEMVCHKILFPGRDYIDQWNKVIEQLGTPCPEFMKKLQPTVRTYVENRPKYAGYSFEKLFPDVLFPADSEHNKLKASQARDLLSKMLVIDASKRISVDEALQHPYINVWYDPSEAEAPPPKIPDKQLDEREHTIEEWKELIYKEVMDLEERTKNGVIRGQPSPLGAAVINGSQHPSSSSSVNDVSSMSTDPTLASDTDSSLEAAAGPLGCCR
Mitogen-activated protein kinase 10 (Homo sapiens), sequence (P53779 whole entry): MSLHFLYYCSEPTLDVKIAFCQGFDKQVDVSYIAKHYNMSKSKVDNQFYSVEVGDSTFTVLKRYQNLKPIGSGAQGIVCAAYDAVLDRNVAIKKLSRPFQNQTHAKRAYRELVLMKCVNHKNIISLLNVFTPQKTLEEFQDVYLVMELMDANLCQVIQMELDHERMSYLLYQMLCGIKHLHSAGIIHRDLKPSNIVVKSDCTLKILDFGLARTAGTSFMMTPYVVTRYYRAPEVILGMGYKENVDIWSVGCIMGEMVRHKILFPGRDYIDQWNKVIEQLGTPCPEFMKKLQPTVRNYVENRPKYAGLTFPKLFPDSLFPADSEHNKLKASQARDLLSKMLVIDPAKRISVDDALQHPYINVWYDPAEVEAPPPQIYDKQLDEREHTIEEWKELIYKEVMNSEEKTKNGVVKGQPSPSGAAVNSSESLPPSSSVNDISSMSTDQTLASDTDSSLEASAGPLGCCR
Cytochrome P450 2C19, sequence (P33261 whole entry): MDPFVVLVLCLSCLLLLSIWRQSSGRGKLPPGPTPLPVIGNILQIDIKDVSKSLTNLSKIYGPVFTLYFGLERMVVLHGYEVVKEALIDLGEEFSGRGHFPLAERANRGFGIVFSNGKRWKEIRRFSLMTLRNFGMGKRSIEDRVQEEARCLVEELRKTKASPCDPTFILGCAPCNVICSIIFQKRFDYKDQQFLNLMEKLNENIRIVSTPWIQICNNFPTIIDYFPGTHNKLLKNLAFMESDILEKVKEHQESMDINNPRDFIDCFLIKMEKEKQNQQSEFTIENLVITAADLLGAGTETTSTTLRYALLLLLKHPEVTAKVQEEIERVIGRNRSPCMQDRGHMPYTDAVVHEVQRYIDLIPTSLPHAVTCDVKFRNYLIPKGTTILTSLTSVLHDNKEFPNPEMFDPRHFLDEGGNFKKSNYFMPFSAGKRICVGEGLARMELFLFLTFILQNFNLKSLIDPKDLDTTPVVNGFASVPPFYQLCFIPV
CDK3/Cyclin E (Homo sapiens), sequence (P24864 whole entry, looked up): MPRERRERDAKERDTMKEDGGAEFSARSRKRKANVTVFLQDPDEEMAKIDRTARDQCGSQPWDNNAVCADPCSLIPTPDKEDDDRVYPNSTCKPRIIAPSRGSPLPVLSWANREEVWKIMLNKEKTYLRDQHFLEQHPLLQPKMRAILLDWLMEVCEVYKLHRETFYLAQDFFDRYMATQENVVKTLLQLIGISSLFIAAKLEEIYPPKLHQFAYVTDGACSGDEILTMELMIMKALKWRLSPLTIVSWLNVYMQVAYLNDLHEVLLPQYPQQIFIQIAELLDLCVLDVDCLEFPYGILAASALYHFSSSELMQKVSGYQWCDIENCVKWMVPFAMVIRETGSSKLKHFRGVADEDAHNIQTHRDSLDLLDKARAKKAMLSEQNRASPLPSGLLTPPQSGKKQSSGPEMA
CDK3/Cyclin E (Homo sapiens), sequence (Q00526 whole entry, looked up): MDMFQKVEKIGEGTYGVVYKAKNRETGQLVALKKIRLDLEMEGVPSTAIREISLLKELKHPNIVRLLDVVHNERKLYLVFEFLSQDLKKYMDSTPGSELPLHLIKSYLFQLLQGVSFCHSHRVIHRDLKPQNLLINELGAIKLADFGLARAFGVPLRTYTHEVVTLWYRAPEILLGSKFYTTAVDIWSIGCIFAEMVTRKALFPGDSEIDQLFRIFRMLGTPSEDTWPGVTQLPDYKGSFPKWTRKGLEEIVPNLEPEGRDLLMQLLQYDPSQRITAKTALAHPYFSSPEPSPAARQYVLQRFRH

## C=CC(=O)N1CCc2c(ncnc2N2CC[C@@H](Nc3ncc(Cl)c(OC)n3)C2)C1
[1]
  AUC: 4190 ng·h/mL
[2]
  AUCt: 6070 ng·h/mL
[3]
  inhibition: Active
[4]
  half-life: 4.1 h
[5]
  Vd: 0.72 L/kg
[6]
  half-life: 3.7 h
[7]
  Activity: Non-toxic
[8]
  Cmax: 460 ng/mL
OCI-AML-3
  IC50: 137 nM
[9]
  Activity: Toxic
[10]
  inhibition: 46%
[11]
  Activity: Non-toxic
[12]
  Activity: Active
[13]
  Cmax: 1660 ng/mL
[14]
  Activity: Non-toxic
[15]
  half-life: 4.09 h
[16]
  Activity: Non-toxic
[17]
  AUCt: 3000 ng·h/mL
[18]
  t1/2: 1.38 h
[19]
  Activity: Toxic
[20]
  half-life: 1.81 h
[21]
  AUCt: 9090 ng·h/mL
[22]
  Activity: Non-toxic
[23]
  Cmax: 1070 ng/mL
Cytochrome P450 1A2
  IC50: > 50000 nM
SUM149PT
  inhibition in vivo at 30 mg/kg: 101%
[24]
  Cmax: 1900 ng/mL
[25]
  inhibition: 63%
Cytochrome P450 2C19
  IC50: > 50000 nM
[26]
  half-life: 0.23 h
[27]
  half-life: 2 h
SW1417
  IC50: 137 nM
[28]
  inhibition: Active
[29]
  inhibition: Active
[30]
  Activity: Non-toxic

From ChEMBL document CHEMBL6153137, “Design, Synthesis, and Biological Evaluation of Novel Orally Available Covalent CDK12/13 Dual Inhibitors for the Treatment of Tumors” (J Med Chem, 2025)
